Data as given in patent US12479878B2, “Crystallization of 2′-FL” (Glycom A/S, priority 2020, dated 2025).

Legend:
Type in all cases: physicochemical
[1] = Residual AcOH content (Megazyme K-ACETRM 07/12); conditions: dried crystals
Method: (§1) The water content of dried crystal powder was measured by Karl-Fischer titration. Residual AcOH content was measured using Megazyme K-ACETRM 07/12.

[2] = Loss on drying of wet filter cake; conditions: for LoD relative to prior art: relative to WO 2016/095924 example 2 filter cake
Method: A sample of the slurry (75 ml) was collected and pressure filtered at 1 bar. Another sample of the slurry (75 ml) was collected, pressure filtered at 1 bar and the filter cake was washed with acetic acid (28 g). The washed and the unwashed solid wet filter cakes were dried overnight at 65° C. and 50 mbar generating loss on drying (LoD) of 17.3% and 23.2 respectively. The concentrations of 2′-FL and other impurities in the mother liquor as well as dried solids were assayed via HPLC. The unwashed dried crystalline material contained 95.3% of 2′-FL and yielded 81.5% of crystalline 2′-FL polymorph II, while the purity of the washed filter cake increased to 97.0%.
Then the filtration was continued for 60 sec. The so-obtained solid wet filter cake was dried overnight (14 hours) at 65° C. and 50 mbar, and loss of drying was determined (see data in the table below).

[3] = Pressure filtration of crystallization slurry (overall filtration rate); conditions: for filtration rate: 75 ml slurry pressure filtered at ΔP=1 bar, polypropylene filter cloth pore size about 3 μm, filtration area 13 cm^2, filtrate volume/(time·filter area); for filterability improvement relative to prior art: relative to WO 2016/095924 example 2 slurry
Method: A sample of the crystallization slurry (75 ml) after completing the crystallization from examples 1-3 above, respectively, and from the prior art (according to WO 2016/095924 example 2, with the difference that the procedure was conducted at 35° C. instead of room temperature and the concentrated syrup was of 62° Bx (140.2 g; containing 48.8 wt % of 2′-FL, 1.3 wt % of lactose and 5.4 wt % of DFL)) was collected and pressure filtered at ΔP=1 bar using a polypropylene filter cloth with a pore size of about 3 μm and a filtration area of 13 cm^2, and the time until the beginning of the liquid-gas mass transfer was measured. The filterability of the slurries was compared by calculating an overall filtration rate according to the following equation: filtrate volume [cm^3]/(time [sec]·filter area [cm^2]).

[4] = Water content of dried crystal powder by Karl-Fischer titration; conditions: dried crystals
Method: as §1

[5] = filter cake washed with acetic acid, dried overnight at 65° C. and 50 mbar
[6] = unwashed solid wet filter cake dried overnight (14 hours) at 65° C. and 50 mbar

Structure (SMILES)	AcOH content [1] [wt %]	LoD (loss on drying) [2, 5] [%]	LoD relative to prior art [2]	LoD (loss on drying) [2, 6] [%]	filtration rate [3] [cm/s]	filterability improvement relative to prior art [3] [x]	H2O content [4] [wt %]
C[C@@H]1OC(O[C@H]2[C@H](O[C@H]3[C@H](O)[C@@H](O)C(O)O[C@@H]3CO)O[C@H](CO)[C@H](O)[C@@H]2O)[C@@H](O)[C@H](O)[C@@H]1O (stereo partly drawn) [WO 2016/095924, 2′-O-fucosyllactose, reference compound]	0.58	–	–	52.9	0.064	–	0.63
C[C@@H]1OC(O[C@H]2[C@H](O[C@H]3[C@H](O)[C@@H](O)C(O)O[C@@H]3CO)O[C@H](CO)[C@H](O)[C@@H]2O)[C@@H](O)[C@H](O)[C@@H]1O (single isomer, unassigned) [Example 1, 2′-O-fucosyllactose]	0.15	17.3	0.44-fold fold lower	23.2	0.39	6.12	0.06

Next, values leading:

AcOH content [1] [wt %]	LoD (loss on drying) [2, 5] [%]	LoD relative to prior art [2]	LoD (loss on drying) [2, 6] [%]	filtration rate [3] [cm/s]	filterability improvement relative to prior art [3] [x]	H2O content [4] [wt %]	Structure (SMILES)
0.11	16.1	0.42-fold fold lower	22.5	0.16	2.57	–	C[C@@H]1OC(O[C@H]2[C@H](O[C@H]3[C@H](O)[C@@H](O)C(O)O[C@@H]3CO)O[C@H](CO)[C@H](O)[C@@H]2O)[C@@H](O)[C@H](O)[C@@H]1O (single isomer, unassigned) [Example 3, 2′-O-fucosyllactose]
–	–	–	48.5	–	–	–	C[C@@H]1OC(O[C@H]2[C@H](O[C@H]3[C@H](O)[C@@H](O)C(O)O[C@@H]3CO)O[C@H](CO)[C@H](O)[C@@H]2O)[C@@H](O)[C@H](O)[C@@H]1O (single isomer, unassigned) [Example 4, 2′-O-fucosyllactose]
0.36	–	0.46-fold fold lower	24.7	0.62	9.78	0.05	C[C@@H]1OC(O[C@H]2[C@H](O[C@H]3[C@H](O)[C@@H](O)C(O)O[C@@H]3CO)O[C@H](CO)[C@H](O)[C@@H]2O)[C@@H](O)[C@H](O)[C@@H]1O (single isomer, unassigned) [Example 2, 2′-O-fucosyllactose]
